# Source: PubChem BioAssay (NCI)
#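 Compound exposure: 48 hours, 5 concentrations, 96-well plates. TGI denotes the concentration required for complete inhibition of growth.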
# Key:
# Test in all cases: growth of human tumour cells (NCI), 48 h
# [1] = system: NCI-H23 lung
# [2] = system: SF-539 CNS
# [3] = system: LOX IMVI melanoma
# [4] = system: HS 578T breast
# [5] = system: HL-60(TB) leukemia
# [6] = system: OVCAR-8 ovarian
# [7] = system: K-562 leukemia
# [8] = system: ACHN renal
# [9] = system: M14 melanoma
# [10] = system: SN12C renal
# [11] = system: NCI/ADR-RES ovarian
# [12] = system: MDA-N
# [13] = system: OVCAR-3 ovarian
# [14] = system: SR leukemia
# [15] = system: UACC-62 melanoma
# [16] = system: COLO 205 colon
# [17] = system: UACC-257 melanoma
# [18] = system: OVCAR-5 ovarian
# [19] = system: MALME-3M melanoma
# [20] = system: PC-3 prostate
# [21] = system: SNB-19 CNS
# [22] = system: SK-MEL-28 melanoma
# [23] = system: SK-OV-3 ovarian
# [24] = system: 786-0 renal
# [25] = system: SW-620 colon
# [26] = system: KM12 colon
# [27] = system: MDA-MB-231 breast
# [28] = system: EKVX NSCLC
# [29] = system: U251 CNS
# [30] = system: SF-268 CNS
# [31] = system: RXF 393 renal
# [32] = system: MOLT-4 leukemia
# [33] = system: HOP-62 NSCLC
# [34] = system: MCF7 breast
# [35] = system: HCT-15 colon
# [36] = system: CAKI-1 renal
# [37] = system: HOP-92 NSCLC
# [38] = system: A498 renal
# [39] = system: DU-145 prostate
# [40] = system: HT29 colon
# [41] = system: CCRF-CEM leukemia
# [42] = system: SNB-75 CNS
# [43] = system: SF-295 CNS
# [44] = system: SK-MEL-2 melanoma
# [45] = system: BT-549 breast
# [46] = system: RPMI-8226 leukemia
# [47] = system: T-47D breast
# [48] = system: SK-MEL-5 melanoma
# [49] = system: HCC-2998 colon
# [50] = system: MDA-MB-435
# [51] = system: HCT-116 colon
# [52] = system: NCI-H226 lung
# [53] = system: UO-31 renal
# [54] = system: NCI-H460 lung
# [55] = system: A549 NSCLC
# [56] = system: OVCAR-4 ovarian
# [57] = system: TK-10 renal
# [58] = system: NCI-H522 lung
# [59] = system: IGROV1 ovarian
smiles,measurement,setting,value
COC(=O)C1Cc2cccc(C)c2C1 (stereo not drawn),TGI,[1],> 100 µM
same,TGI,[2],> 100 µM
same,TGI,[3],> 100 µM
same,TGI,[4],> 100 µM
same,TGI,[5],> 100 µM
same,TGI,[6],> 100 µM
same,TGI,[7],> 100 µM
same,TGI,[8],> 100 µM
same,TGI,[9],> 100 µM
same,TGI,[10],> 100 µM
same,TGI,[11],> 100 µM
same,TGI,[12],> 100 µM
same,TGI,[13],> 100 µM
same,TGI,[14],> 100 µM
same,TGI,[15],> 100 µM
same,TGI,[16],> 100 µM
same,TGI,[17],> 100 µM
same,TGI,[18],> 100 µM
same,TGI,[19],> 100 µM
same,TGI,[20],> 100 µM
same,TGI,[21],> 100 µM
same,TGI,[22],> 100 µM
same,TGI,[23],> 100 µM
same,TGI,[24],> 100 µM
same,TGI,[25],> 100 µM
same,TGI,[26],> 100 µM
same,TGI,[27],> 100 µM
same,TGI,[28],> 100 µM
same,TGI,[29],> 100 µM
same,TGI,[30],> 100 µM
same,TGI,[31],> 100 µM
same,TGI,[32],> 100 µM
same,TGI,[33],> 100 µM
same,TGI,[34],71.6 µM
same,TGI,[35],> 100 µM
same,TGI,[36],> 100 µM
same,TGI,[37],> 100 µM
same,TGI,[38],> 100 µM
same,TGI,[39],> 100 µM
same,TGI,[40],> 100 µM
same,TGI,[41],> 100 µM
same,TGI,[42],> 100 µM
same,TGI,[43],> 100 µM
same,TGI,[44],> 100 µM
same,TGI,[45],> 100 µM
same,TGI,[46],> 100 µM
same,TGI,[47],> 100 µM
same,TGI,[48],> 100 µM
same,TGI,[49],> 100 µM
same,TGI,[50],> 100 µM
same,TGI,[51],> 100 µM
same,TGI,[52],> 100 µM
same,TGI,[53],> 100 µM
same,TGI,[54],> 100 µM
same,TGI,[55],> 100 µM
same,TGI,[56],> 100 µM
same,TGI,[57],> 100 µM
same,TGI,[58],> 100 µM
same,TGI,[59],> 100 µM
NC1CC(=O)c2c(Cl)sc(Cl)c21 (stereo not drawn),TGI,[1],25 µM
same,TGI,[2],8.85 µM
same,TGI,[3],4.81 µM
same,TGI,[4],70.4 µM
same,TGI,[5],6.09 µM
same,TGI,[6],20 µM
same,TGI,[7],75 µM
same,TGI,[8],6.14 µM
same,TGI,[9],35.4 µM
same,TGI,[10],14.4 µM
same,TGI,[11],49.9 µM
same,TGI,[12],16.4 µM
same,TGI,[13],24 µM
same,TGI,[14],1.99 µM
same,TGI,[15],7.78 µM
same,TGI,[16],2.57 µM
same,TGI,[17],7.27 µM
same,TGI,[18],42.9 µM
same,TGI,[19],4.66 µM
same,TGI,[20],18 µM
same,TGI,[21],42.2 µM
same,TGI,[22],4 µM
same,TGI,[23],26.4 µM
same,TGI,[24],2.87 µM
same,TGI,[25],3.73 µM
same,TGI,[26],12.8 µM
same,TGI,[27],6.39 µM
same,TGI,[28],5.07 µM
same,TGI,[29],21.5 µM
same,TGI,[30],67.4 µM
same,TGI,[31],2.95 µM
same,TGI,[32],9.37 µM
same,TGI,[33],34 µM
same,TGI,[34],7.9 µM
same,TGI,[35],3.94 µM
same,TGI,[36],6.1 µM
same,TGI,[37],2.91 µM
same,TGI,[38],31.1 µM
same,TGI,[39],16 µM
same,TGI,[40],14.1 µM
same,TGI,[41],2.94 µM
same,TGI,[42],26.1 µM
same,TGI,[43],31.3 µM
same,TGI,[44],25 µM
same,TGI,[45],10.7 µM
same,TGI,[46],7.76 µM
same,TGI,[47],4.96 µM
same,TGI,[48],22.9 µM
same,TGI,[49],22.7 µM
same,TGI,[50],15.5 µM
same,TGI,[51],4.49 µM
same,TGI,[52],30.9 µM
same,TGI,[53],20.3 µM
same,TGI,[54],33.7 µM
same,TGI,[55],35.3 µM
same,TGI,[56],16 µM
same,TGI,[57],6.26 µM
same,TGI,[58],2.89 µM
same,TGI,[59],9.84 µM
